Measurements published in patent publication US20180265515A1 (Genentech, Inc., priority 2015, published 2018).

Assays:
[1] = molecular target: T1, isolated recombinant JAK2 kinase domain (Homo sapiens, UniProt O60674); assay: JAK2 enzyme assay (Caliper LabChip, Ki); format: biochemical; conditions: 25 μM ATP
T1 construct: The activity of the isolated recombinant JAK1 and JAK2 kinase domain was measured
Outline: (§1)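 Ki values fitted with Morrison tight-binding equation adjusted for ATP-competitive inhibition, using product-to-total peptide ratio read by Caliper LabChip. Reactions: isolated JAK1 or JAK2 kinase domain with N-terminal 5-carboxyfluorescein JAK3-derived peptide, 22° C for 30 min, quenched by EDTA.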

[2] = molecular target: T2, isolated recombinant JAK1 kinase domain (Homo sapiens, UniProt P23458); assay: JAK1 enzyme assay (Caliper LabChip, Ki); format: biochemical; conditions: recombinant JAK1 kinase domain, 25 μM ATP
T2 construct: The activity of the isolated recombinant JAK1 and JAK2 kinase domain was measured
Outline: as §1

[3] = test system: JAK1-dependent STAT6 phosphorylation downstream of IL-13 stimulation in BEAS-2B human bronchial epithelial cells; assay: JAK1 pathway assay in BEAS-2B cells (IL-13 stimulated STAT6 phosphorylation, MSD); format: cell-based; conditions: read-out: P-STAT6 BEAS2B + IL13 IC50
Outline: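 BEAS-2B human bronchial epithelial cells, plated the day before in complete growth medium, were preincubated with compound for 1 hr at 37° C (0.2% DMSO final), then stimulated with IL-13 at its EC90 for 15 min. STAT6 phosphorylation in lysates was read by MSD; EC50 was taken as 50% inhibition versus DMSO control.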

T1 sequence (O60674 849-1124 limits assumed): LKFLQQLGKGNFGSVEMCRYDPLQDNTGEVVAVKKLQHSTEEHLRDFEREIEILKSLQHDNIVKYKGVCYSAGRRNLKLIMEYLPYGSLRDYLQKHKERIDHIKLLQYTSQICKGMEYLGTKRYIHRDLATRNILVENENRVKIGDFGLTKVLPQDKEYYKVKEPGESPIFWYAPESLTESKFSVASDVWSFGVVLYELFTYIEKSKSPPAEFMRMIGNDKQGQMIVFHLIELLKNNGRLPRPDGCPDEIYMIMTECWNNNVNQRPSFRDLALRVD
T2 sequence (P23458 875-1153 limits assumed): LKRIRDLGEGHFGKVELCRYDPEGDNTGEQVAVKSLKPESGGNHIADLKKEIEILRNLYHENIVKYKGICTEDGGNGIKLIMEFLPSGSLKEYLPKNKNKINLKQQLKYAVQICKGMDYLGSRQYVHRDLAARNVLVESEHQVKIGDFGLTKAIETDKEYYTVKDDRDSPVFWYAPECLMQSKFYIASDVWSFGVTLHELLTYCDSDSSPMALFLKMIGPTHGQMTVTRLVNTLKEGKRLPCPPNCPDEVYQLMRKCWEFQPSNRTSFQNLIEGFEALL

| SMILES | Ki [1] | Ki [2] | IC50 [3] |
| --- | --- | --- | --- |
| CC(C)Sc1ccc(OC(F)F)c(-c2nn(CC(=O)N3CCC(N4CCn5cncc5C4)CC3)cc2NC(=O)c2cnn3cccnc23)c1 [Example 139, N-[3-[2-(difluoromethoxy)-5-isopropylsulfanyl-phenyl]-1-[2-[4-(6,8-dihydro-5H-imidazo[1,5-a]pyrazin-7-yl)-1-piperidyl]-2-oxo-ethyl]pyrazol-4-yl]pyrazolo[1,5-a]pyrimidine-3-carboxamide] | 0.84 nM | 0.51 nM | 140 nM |
| CC(C)Sc1ccc(OC(F)F)c(-c2nn(CC(=O)N3CCN(CC4CCN(CC(=O)N(C)C)CC4)CC3)cc2NC(=O)c2cnn3cccnc23)c1 [Example 140, N-[3-[2-(difluoromethoxy)-5-isopropylsulfanyl-phenyl]-1-[2-[4-[[1-[2-(dimethylamino)-2-oxo-ethyl]-4-piperidyl]methyl]piperazin-1-yl]-2-oxo-ethyl]pyrazol-4-yl]pyrazolo[1,5-a]pyrimidine-3-carboxamide] | 1.7 nM | 0.63 nM | 51 nM |
| CC(C)Sc1ccc(OC(F)F)c(-c2nn(CC(=O)N3CCN(CC4CCN(CC(=O)N5CCOCC5)CC4)CC3)cc2NC(=O)c2cnn3cccnc23)c1 [Example 141, N-[3-[2-(difluoromethoxy)-5-isopropylsulfanyl-phenyl]-1-[2-[4-[[1-(2-morpholino-2-oxo-ethyl)-4-piperidyl]methyl]piperazin-1-yl]-2-oxo-ethyl]pyrazol-4-yl]pyrazolo[1,5-a]pyrimidine-3-carboxamide] | 1.9 nM | 0.78 nM | 36 nM |
| CC(C)Sc1ccc(OC(F)F)c(-c2nn(CC(=O)N3CCN(C4CCN(CC(=O)N(C)C)CC4)CC3)cc2NC(=O)c2cnn3cccnc23)c1 [Example 142, N-[3-[2-(difluoromethoxy)-5-isopropylsulfanyl-phenyl]-1-[2-[4-[1-[2-(dimethylamino)-2-oxo-ethyl]-4-piperidyl]piperazin-1-yl]-2-oxo-ethyl]pyrazol-4-yl]pyrazolo[1,5-a]pyrimidine-3-carboxamide] | 2 nM | 0.88 nM | 110 nM |
| CC(C)Sc1ccc(OC(F)F)c(-c2nn(CC(=O)N3CCC(N4CCN(C5COC5)CC4)CC3)cc2NC(=O)c2cnn3cccnc23)c1 [Example 143] | 2.5 nM | 0.92 nM | 89 nM |
| CC(C)Sc1ccc(OC(F)F)c(-c2nn(C)cc2NC(=O)c2cnn3cccnc23)c1 [Example 144, N-[3-[2-(difluoromethoxy)-5-(propan-2-ylsulfanyl)phenyl]-1-methyl-1H-pyrazol-4-yl]pyrazolo[1,5-a]pyrimidine-3-carboxamide] | 0.14 nM | 0.25 nM | 5.6 nM |
| CNC(=O)[C@@H]1CCCN1C1CCN(C(=O)Cn2cc(NC(=O)c3cnn4cccnc34)c(-c3cc(SC(C)C)ccc3OC(F)F)n2)CC1 [Example 145, N-[3-[2-(difluoromethoxy)-5-isopropylsulfanyl-phenyl]-1-[2-[4-[(2S)-2-(methylcarbamoyl)pyrrolidin-1-yl]-1-piperidyl]-2-oxo-ethyl]pyrazol-4-yl]pyrazolo[1,5-a]pyrimidine-3-carboxamide] | 1.6 nM | 0.6 nM | 100 nM |
| CC(C)Sc1ccc(OC(F)F)c(-c2nn(CC(=O)N3CCC(N4CCn5ccnc5C4)CC3)cc2NC(=O)c2cnn3cccnc23)c1 [Example 146, N-[3-[2-(difluoromethoxy)-5-isopropylsulfanyl-phenyl]-1-[2-[4-(6,8-dihydro-5H-imidazo[1,2-a]pyrazin-7-yl)-1-piperidyl]-2-oxo-ethyl]pyrazol-4-yl]pyrazolo[1,5-a]pyrimidine-3-carboxamide] | 0.72 nM | 0.37 nM | 170 nM |
| CC(C)Sc1ccc(OC(F)F)c(-c2nn(CC(=O)N3CCC(N(CCN4CCOCC4)C4COC4)CC3)cc2NC(=O)c2cnn3cccnc23)c1 [Example 147, N-[3-[2-(difluoromethoxy)-5-isopropylsulfanyl-phenyl]-1-[2-[4-[2-morpholinoethyl(oxetan-3-yl)amino]-1-piperidyl]-2-oxo-ethyl]pyrazol-4-yl]pyrazolo[1,5-a]pyrimidine-3-carboxamide] | 1.8 nM | 0.73 nM | 1000 nM |
| CC(C)Sc1ccc(OC(F)F)c(-c2nn(Cc3cn(C4CCN(C5COC5)CC4)nn3)cc2NC(=O)c2cnn3cccnc23)c1 [Example 148, N-[3-[2-(difluoromethoxy)-5-isopropylsulfanyl-phenyl]-1-[[1-[1-(oxetan-3-yl)-4-piperidyl]triazol-4-yl]methyl]pyrazol-4-yl]pyrazolo[1,5-a]pyrimidine-3-carboxamide] | 0.24 nM | 0.4 nM | 55 nM |
| CC(C)Sc1ccc(OC(F)F)c(-c2nn(CC(=O)N3CCC(N4CCO[C@H](CO)C4)CC3)cc2NC(=O)c2cnn3cccnc23)c1 [Example 149, N-[3-[2-(difluoromethoxy)-5-isopropylsulfanyl-phenyl]-1-[2-[4-[(2S)-2-(hydroxymethyl)morpholin-4-yl]-1-piperidyl]-2-oxo-ethyl]pyrazol-4-yl]pyrazolo[1,5-a]pyrimidine-3-carboxamide] | 1.2 nM | 0.52 nM | 50 nM |

Second part, led by results:

| Ki [1] | Ki [2] | SMILES | IC50 [3] |
| --- | --- | --- | --- |
| 1.4 nM | 0.6 nM | COC(=O)N1CCN(CC2CCN(C(=O)Cn3cc(NC(=O)c4cnn5cccnc45)c(-c4cc(SC(C)C)ccc4OC(F)F)n3)CC2)CC1 [Example 150, methyl 4-[[1-(2-[3-[2-(difluoromethoxy)-5-(propan-2-ylsulfanyl)phenyl]-4-[pyrazolo[1,5-a]pyrimidine-3-amido]-1H-pyrazol-1-yl]acetyl)piperidin-4-yl]methyl]piperazine-1-carboxylate] | 15 nM |
| 2.3 nM | 0.54 nM | CC(C)Sc1ccc(OC(F)F)c(-c2nn(CC(=O)N3CCC(C(=O)N4CCNCC4)CC3)cc2NC(=O)c2cnn3cccnc23)c1 [Example 151, N-[3-[2-(difluoromethoxy)-5-isopropylsulfanyl-phenyl]-1-[2-oxo-2-[4-(piperazine-1-carbonyl)-1-piperidyl]ethyl]pyrazol-4-yl]pyrazolo[1,5-a]pyrimidine-3-carboxamide] | 960 nM |
| 1.3 nM | 0.52 nM | CC(C)Sc1ccc(OC(F)F)c(-c2nn(CC(=O)N3CCC(N4CCN(CC(=O)N5CCOCC5)CC4)CC3)cc2NC(=O)c2cnn3cccnc23)c1 [Example 152, N-[3-[2-(difluoromethoxy)-5-isopropylsulfanyl-phenyl]-1-[2-[4-[4-(2-morpholino-2-oxo-ethyl)piperazin-1-yl]-1-piperidyl]-2-oxo-ethyl]pyrazol-4-yl]pyrazolo[1,5-a]pyrimidine-3-carboxamide] | 290 nM |
| 0.91 nM | 0.41 nM | CC(C)Sc1ccc(OC(F)F)c(-c2nn(CC(=O)N3CCC(N4CCOC[C@H]4CO)CC3)cc2NC(=O)c2cnn3cccnc23)c1 [Example 153] | 110 nM |
| 1.5 nM | 0.42 nM | CC(C)Sc1ccc(OC(F)F)c(-c2nn(CC(=O)N3CCC(N(C)CC(=O)N4CCOCC4)CC3)cc2NC(=O)c2cnn3cccnc23)c1 [Example 154, N-[3-[2-(difluoromethoxy)-5-isopropylsulfanyl-phenyl]-1-[2-[4-[methyl-(2-morpholino-2-oxo-ethyl)amino]-1-piperidyl]-2-oxo-ethyl]pyrazol-4-yl]pyrazolo[1,5-a]pyrimidine-3-carboxamide] | 81 nM |
| 0.99 nM | 0.31 nM | CC(C)Sc1ccc(OC(F)F)c(-c2nn(CC(=O)N3CCC(N4CCO[C@@H](CO)C4)CC3)cc2NC(=O)c2cnn3cccnc23)c1 [Example 155, N-[3-[2-(difluoromethoxy)-5-isopropylsulfanyl-phenyl]-1-[2-[4-[(2R)-2-(hydroxymethyl)morpholin-4-yl]-1-piperidyl]-2-oxo-ethyl]pyrazol-4-yl]pyrazolo[1,5-a]pyrimidine-3-carboxamide] | 48 nM |
| 0.29 nM | 0.36 nM | CC(C)Sc1ccc(OC(F)F)c(-c2nn(Cc3cn(C4CCN(C5CCOC5)CC4)nn3)cc2NC(=O)c2cnn3cccnc23)c1 (stereo not drawn) [Example 156, N-[3-[2-(difluoromethoxy)-5-(propan-2-ylsulfanyl)phenyl]-1-([1-[1-(oxolan-3-yl)piperidin-4-yl]-1H-1,2,3-triazol-4-yl]methyl)-1H-pyrazol-4-yl]pyrazolo[1,5-a]pyrimidine-3-carboxamide] | 21 nM |
| 0.77 nM | 0.27 nM | CC(=O)N1CCN(CC2CCN(C(=O)Cn3cc(NC(=O)c4cnn5cccnc45)c(-c4cc(SC(C)C)ccc4OC(F)F)n3)CC2)CC1 [Example 157, N-[1-[2-[4-[(4-acetylpiperazin-1-yl)methyl]-1-piperidyl]-2-oxo-ethyl]-3-[2-(difluoromethoxy)-5-isopropylsulfanyl-phenyl]pyrazol-4-yl]pyrazolo[1,5-a]pyrimidine-3-carboxamide] | 47 nM |
| 1 nM | 0.59 nM | CC(C)Sc1ccc(OC(F)F)c(-c2nn(CC(=O)N3CCC(N4CCOC[C@@H]4CO)CC3)cc2NC(=O)c2cnn3cccnc23)c1 [Example 158, N-[3-[2-(difluoromethoxy)-5-isopropylsulfanyl-phenyl]-1-[2-[4-[(3S)-3-(hydroxymethyl)morpholin-4-yl]-1-piperidyl]-2-oxo-ethyl]pyrazol-4-yl]pyrazolo[1,5-a]pyrimidine-3-carboxamide] | 91 nM |
